We go through 16 molecules from patent publication US6150385A, “1,3,4-thiadiazoles useful for the treatment of CMV infections” (Pharmacia & Upjohn Company, priority 1999, dated 2000).

Each structure is given as a SMILES string.

T1 sequence (P08546 whole entry): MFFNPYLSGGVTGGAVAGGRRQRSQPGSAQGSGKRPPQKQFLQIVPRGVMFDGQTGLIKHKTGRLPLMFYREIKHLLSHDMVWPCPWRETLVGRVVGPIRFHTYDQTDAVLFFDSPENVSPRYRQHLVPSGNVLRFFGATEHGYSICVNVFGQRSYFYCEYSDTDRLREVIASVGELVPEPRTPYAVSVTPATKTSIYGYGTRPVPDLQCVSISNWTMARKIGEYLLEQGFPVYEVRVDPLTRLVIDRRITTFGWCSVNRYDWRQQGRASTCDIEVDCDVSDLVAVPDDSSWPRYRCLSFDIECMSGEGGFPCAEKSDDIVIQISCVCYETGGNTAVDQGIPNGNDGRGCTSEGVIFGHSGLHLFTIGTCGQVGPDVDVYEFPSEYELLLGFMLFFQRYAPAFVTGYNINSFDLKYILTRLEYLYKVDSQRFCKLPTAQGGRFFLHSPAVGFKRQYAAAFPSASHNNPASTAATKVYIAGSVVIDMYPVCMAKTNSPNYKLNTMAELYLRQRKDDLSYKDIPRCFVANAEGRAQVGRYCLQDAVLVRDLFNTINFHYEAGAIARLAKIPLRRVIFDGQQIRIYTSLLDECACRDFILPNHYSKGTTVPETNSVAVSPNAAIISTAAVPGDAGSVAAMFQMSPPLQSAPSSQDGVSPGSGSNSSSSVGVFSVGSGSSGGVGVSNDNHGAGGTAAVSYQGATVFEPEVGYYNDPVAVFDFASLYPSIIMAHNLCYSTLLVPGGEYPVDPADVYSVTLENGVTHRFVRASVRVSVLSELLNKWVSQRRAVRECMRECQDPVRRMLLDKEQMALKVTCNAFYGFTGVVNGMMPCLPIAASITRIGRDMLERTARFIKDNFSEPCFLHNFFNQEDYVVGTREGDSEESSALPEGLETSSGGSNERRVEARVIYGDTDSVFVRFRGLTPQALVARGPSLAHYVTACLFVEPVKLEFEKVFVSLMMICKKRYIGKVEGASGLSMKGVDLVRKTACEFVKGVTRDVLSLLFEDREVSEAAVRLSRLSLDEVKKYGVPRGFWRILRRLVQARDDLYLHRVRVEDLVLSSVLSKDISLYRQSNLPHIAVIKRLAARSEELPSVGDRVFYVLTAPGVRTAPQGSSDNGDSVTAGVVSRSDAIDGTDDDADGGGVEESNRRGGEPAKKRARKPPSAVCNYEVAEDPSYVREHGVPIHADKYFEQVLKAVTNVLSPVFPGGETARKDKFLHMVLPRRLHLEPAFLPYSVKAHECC

The experiment concerns the target T1, HCMV polymerase (Human cytomegalovirus, UniProt P08546).
T1 construct: made in house; host or cells: SF-9 insect cells infected with recombinant baculovirus
Description: HCMV polymerase assay (scintillation proximity assay). The following applies: percentage of inhibition at 25 μM concentration in CMV polymerase assay. The experiment is classed as biochemical. The protocol:
The compounds of the present invention are tested in an polymerase assay to show activity described below, which is indicative of a compound's activity and thus of its use as an anti-viral agent.
The HCMV polymerase assay is performed using a scintillation proximity assay (SPA) as described in several references, such as N. D. Cook, et al., Pharmaceutical Manufacturing International, pages 49-53 (1992); K. Takeuchi, Laboratory Practice, September issue (1992); U.S. Pat. No. 4,568,649 (1986); which are incorporated by reference herein. Reactions are performed in 96-well plates. The assay is conducted in 100 μl volume with 5.4 mM HEPES (pH 7.5), 11.7 mM KCl, 4.5 mM MgCl2, 0.36 mg/ml BSA, and 90 nM ^3 H-dTTP. Assays are run with and without CHAPS, (3-[(3-Cholamidopropyl)-dimethylammonio]-1-propanesulfonate) at a final concentration of 2 mM. HCMV is diluted in enzyme dilution buffer containing 50% glycerol, 250 mM NaCl, 10 mM HEPES (pH 7.5), 100 μg/ml BSA, and 0.01% sodium azide. The HCMV polymerase, which is expressed in recombinant baculovirus-infected SF-9 cells and purified according to literature procedures, is added at 10% (or 10 μl) of the final reaction volume, i.e., 100 μl. Compounds are diluted in 50% DMSO and 10 μl are added to each well. Control wells contain an equivalent concentration of DMSO. Unless noted otherwise, reactions are initiated via the addition of 6 nM biotinylated poly(dA)-oligo(dT) template/primer to reaction mixtures containing the enzyme, substrate, and compounds of interest. Plates are incubated in a 25° C. or 37° C. H2 O bath and terminated via the addition of 40 μl/reaction of 0.5 M EDTA (pH 8) per well. Reactions are terminated within the time-frame during which substrate incorporation is linear and varied depending upon the enzyme and conditions used, i.e., 30 min. for HCMV polymerase. Ten μl of streptavidin-SPA beads (20 mg/ml in PBS/10% glycerol) are added following termination of the reaction. Plates are incubated 10 min. at 37° C., then equilibrated to room temperature, and counted on a Packard Topcount.
In TABLE 1, "MS" refers to mass spectral data, "% inhib" refers to percentage of inhibition at 25 μM concentration in CMV polymerase assay.
The term inhibition denotes the share of the control response that was lost under treatment. The low end stands for a response near the control, the high end for a response far below the control. On to `O=C(Nc1nnc(NCCCn2ccnc2)s1)c1c(Cl)cccc1Cl` [compound 99, 2,6-dichloro-N-(5-{[3-(1H-imidazol-1-yl)propyl]amino}-1,3,4-thiadiazol-2-yl)benzamide], for which the inhibition at 25 µM came to 65.6%.

`O=C(Nc1nnc(NCCC(c2ccccc2)c2ccccc2)s1)c1cc(F)cc(F)c1` [compound 281, N-{5-[(3,3-diphenylpropyl)amino]-1,3,4-thiadiazol-2-yl}-3,5-difluorobenzamide] came in with an inhibition at 25 µM of 37.3%.

In turn, `O=C(CCCCCl)Nc1nnc(NCCCN2CCCC2=O)s1` [compound 325, 5-chloro-N-(5-{[3-(2-oxo-1-pyrrolidinyl)propyl]amino}-1,3,4-thiadiazol-2-yl)pentanamide] displayed an inhibition at 25 µM of 32.8%.

As to `COc1ccc(CNc2nnc(NC(=O)c3ccc(I)cc3)s2)cc1OC` [compound 134, N-{5-[(3,4-dimethoxybenzyl)amino]-1,3,4-thiadiazol-2-yl}-4-iodobenzamide], at 25 µM the inhibition was 56.9%.

Consider `O=C(Nc1nnc(NCCc2ccccc2)s1)c1cccc([N+](=O)[O-])c1` [compound 411, 3-nitro-N-[5-(phenethylamino)-1,3,4-thiadiazol-2-yl]benzamide], for which the inhibition at 25 µM came out at 24.8%.

Molecule `CCCCCCCC/C=C/CCCCCCCC(=O)Nc1nnc(NCCc2ccccc2)s1` [compound 105, (E)-N-[5-(phenethylamino)-1,3,4-thiadiazol-2-yl]-9-octadecenamide] displayed an inhibition at 25 µM of 64.6%.

`O=C(Nc1nnc(NCc2ccncc2)s1)c1ccc(I)cc1` [compound 289, 4-iodo-N-{5-[(4-pyridinylmethyl)amino]-1,3,4-thiadiazol-2-yl}benzamide] returned an inhibition at 25 µM of 36%.

For `O=C(Nc1nnc(NCCc2ccccc2)s1)c1c(Cl)cccc1Cl` [compound 377, 2,6-dichloro-N-[5-(phenethylamino)-1,3,4-thiadiazol-2-yl]benzamide], the inhibition at 25 µM stood at 27.8%.

`CC(C)(C)OC(=O)CCNc1nnc(NC(=O)c2ccc3c(c2)C(=O)OC3=O)s1` [compound 340, tert-butyl 3-[(5-{[(1,3-dioxo-1,3-dihydro-2-benzofuran-5-yl)carbonyl]amino}-1,3,4-thiadiazol-2-yl)amino]propanoate]: the inhibition at 25 µM is 31.5%.

For `O=C(Nc1nnc(NCCSc2ccccc2)s1)c1ccc(F)cc1F` [compound 205, 2,4-difluoro-N-(5-{[2-(phenylsulfanyl)ethyl]amino}-1,3,4-thiadiazol-2-yl)benzamide], the inhibition at 25 µM worked out at 44.9%.

As to `O=C(/C=C/c1ccccc1Cl)Nc1nnc(NCCSc2ccccc2)s1` [compound 322, (E)-3-(2-chlorophenyl)-N-(5-{[2-(phenylsulfanyl)ethyl]amino}-1,3,4-thiadiazol-2-yl)-2-propenamide], the inhibition at 25 µM worked out at 33.2%.

`O=C(Nc1nnc(NCc2ccncc2)s1)c1ccc(Cl)c(Cl)c1` [compound 263, 3,4-chloro-N-{5-[(4-pyridinylmethyl)amino]-1,3,4-thiadiazol-2-yl}benzamide] yielded an inhibition at 25 µM of 39.4%.

As to `O=C(Nc1nnc(NCCCn2ccnc2)s1)c1ccc(Br)cc1` [compound 272, 4-bromo-N-(5-{[3-(1H-imidazol-1-yl)propyl]amino}-1,3,4-thiadiazol-2-yl)benzamide], the inhibition at 25 µM is 38.2%.

The molecule `N#Cc1ccc(C(=O)Nc2nnc(NC3CCCCCC3)s2)cc1` [compound 103, 4-cyano-N-[5-(cycloheptylamino)-1,3,4-thiadiazol-2-yl]benzamide] had an inhibition at 25 µM of 64.9%.

Turning to `O=C(Nc1nnc(NCCCN2CCCC2=O)s1)c1ccc(I)cc1` [compound 203, 4-iodo-N-(5-{[3-(2-oxo-1-pyrrolidinyl)propyl]amino}-1,3,4-thiadiazol-2-yl)benzamide], 25 µM produced 45% inhibition.

`O=C(Nc1nnc(NCCN2CCOCC2)s1)c1cccc([N+](=O)[O-])c1` [compound 469, N-{5-[(2-morpholinoethyl)amino]-1,3,4-thiadiazol-2-yl}-3-nitrobenzamide] gave an inhibition at 25 µM of 20.1%.
